Measured values published in publication PMC11542830, “3-nitropyridine analogues as novel microtubule-targeting agents” (PLOS ONE, 2024).
Like-named read-outs stand apart in the source and are kept apart here.

Key:
LOX IMVI = assay: NCI60 5-dose screen, LOX IMVI; format: cell-based; conditions: Homo sapiens, melanoma, Fig 1D, read-out: Log10 GI50 (LOX IMVI) (converted)
Method: (§1) The screening methodology used in the NCI60 Cell 5-Doses screen is described in detail at https://dtp.cancer.gov/discovery_development/nci-60/methodology.htm. Briefly, cells are seeded in 96 well plates at an appropriate density and incubated for 1 day. After 1 day, some of the plates are processed to determine a time zero density. To the remaining plates, compounds are added over a 5-log M concentration range (1 log dilutions from 10^-4M to 10^-8M). Plates are incubated for two additional days, then fixed and stained with sulforhodamine B. Growth inhibition is calculated relative to cells without drug treatment and the time zero control. The GI50 is the concentration of a compound that causes 50% growth inhibition, relative to the no drug control.

HT-29 cells = assay: Clonogenic assay on HT-29 cells; format: cell-based; conditions: Homo sapiens, 144 h; HT-29, 6 days of incubation, colonies counted; read-out: IC50 (HT-29 cell proliferation, clonogenic assay)
Method: All experiments were performed under standard cell culture conditions at 37°C and 5% CO2. Colorectal adenocarcinoma HT-29 cells were seeded at 300 cells/well in triplicate in six well microtiter plates in RPMI-1640 medium supplemented with 10% fetal bovine serum and 25 μg/ml gentamicin (complete medium). Twenty-four hours later, the compounds were added in complete medium in final concentrations ranging from 10 μM to 0.1 nM. Cells were allowed to grow until they formed colonies for 6 days. The colonies were fixed with 100% methanol, stained with Trypan blue 0.4% in saline and the number of colonies was counted. The number of colonies in the treated wells was normalized to the number obtained in the untreated wells. Three biological independent experiments were performed for each compound.

PC3 cells = assay: 3-day MTS cell viability assay, PC3; format: cell-based; conditions: Homo sapiens, PC-3, 72 hours, Fig 1C
Method: (§2) All cancer cell lines (HT-29: colorectal adenocarcinoma, HCT-116: colorectal carcinoma, A549: lung epithelial carcinoma, PC3: prostate adenocarcinoma, Jurkat: acute T-cell leukemia, BC-1: primary effusion lymphoma) and the normal human embryonal lung fibroblast cell line MRC-5 were acquired from the American Type Culture Collection (ATCC). All cell lines were cultured as recommended by the suppliers. Culture media were purchased from Gibco (Thermo Fisher Scientific) and supplemented with 10 to 20% fetal bovine serum (HyClone, GE Healthcare Life Sciences) and 20–25 μg/mL gentamicin (Gibco, Thermo Fisher Scientific). […]
(§3) Cell viability in cancer cell lines treated with compound was measured in a 3-day MTS cell proliferation assay using the CellTiter 96 AQueous Non-Radioactive Cell Proliferation Assay reagent (Promega) according to the manufacturer’s instructions. Absorbance was read at 490 nm on a SaFire II microplate reader (Tecan). CC50 values were calculated by fitting the obtained MTS cell viability data in GraphPad Prism using a 4-parameter log–based fit for inhibitors. Apoptosis induction and cell death upon compound treatment in PBMC was measured using the Alexa Fluor 488 Annexin V/Dead Cell Apoptosis Kit (Thermo Fisher Scientific), with readout on a FACSCanto II flow cytometer (BD Biosciences). […] The compounds were evaluated in duplo in two independent experiments.

A549 cells = assay: 3-day MTS cell viability assay, A549; format: cell-based; conditions: Homo sapiens, 72 hours, Fig 1C
Method: as §2, §3

NCI-H23 = assay: NCI60 5-dose screen, NCI-H23; format: cell-based; conditions: Homo sapiens, non-small cell lung cancer, Fig 1D, read-out: Log10 GI50 (NCI-H23) (converted)
Method: as §1

UACC-62 = assay: NCI60 5-dose screen, UACC-62; format: cell-based; conditions: Homo sapiens, melanoma, Fig 1D, read-out: Log10 GI50 (UACC-62) (converted)
Method: as §1

A549/ATCC = assay: NCI60 5-dose screen, A549/ATCC; format: cell-based; conditions: Homo sapiens, non-small cell lung cancer, Fig 1D, read-out: Log10 GI50 (A549/ATCC) (converted)
Method: as §1

primary cortical neurons = assay: Neurite outgrowth assay; format: cell-based, Sprague-Dawley rat; conditions: Primary cortical neuron, rat primary cortical neurons, 72 hours
Method: Neurite outgrowth assay was performed by Fluofarma (Pessac, France). Primary cortical neurons were harvested from E19 Sprague-Dawley (Janvier Labs) rat embryos, dissociated and plated at 10,000 per well in a tissue-culture treated 96 well plate, in neuronal medium (SM2 matrix independent growth medium, Stem Cell Technologies). Neurons were followed by phase contrast imaging with 1 image acquired every 4 hours, using an Incucyte Zoom (Essen BioScience) with a 20x objective. Four fields per well were acquired. After 24 hours, cells were treated with test compounds and neurite outgrowth was followed for 72 hours post-treatment. All measures were performed in triplicate in one experiment.
Neurite outgrowth kinetics were analyzed from each phase contrast image using the Neurotrack module of the Incucyte Zoom platform. Neurite length and branch points were obtained for each time point. The area under the curve (AUC) was calculated in each experimental condition (GraphPad Prism 6, GraphPad Software).

K-562 = assay: NCI60 5-dose screen, K-562; format: cell-based; conditions: Homo sapiens, K562; leukemia; Fig 1D; read-out: Log10 GI50 (K-562) (converted)
Method: as §1

CAKI-1 = assay: NCI60 5-dose screen, CAKI-1; format: cell-based; conditions: Homo sapiens, renal cancer, Fig 1D, read-out: Log10 GI50 (CAKI-1) (converted)
Method: as §1

SK-MEL-28 = assay: NCI60 5-dose screen, SK-MEL-28; format: cell-based; conditions: Homo sapiens, melanoma, Fig 1D, read-out: Log10 GI50 (SK-MEL-28) (converted)
Method: as §1

Jurkat cells = assay: Apoptosis induction, annexin V/PI staining, Jurkat; format: cell-based, human; conditions: 24 hours, dose-dependent
TK-10 = assay: NCI60 5-dose screen, TK-10; format: cell-based; conditions: Homo sapiens, renal cancer, Fig 1D, read-out: Log10 GI50 (TK-10) (converted)
Method: as §1

CCRF-CEM = assay: NCI60 5-dose screen, CCRF-CEM; format: cell-based; conditions: Homo sapiens, leukemia, Fig 1D, read-out: Log10 GI50 (CCRF-CEM) (converted)
Method: as §1

[1] = read-out: IC50 for branch point formation
[2] = read-out: IC50 for neurite length

Row | Compound | GI50 (LOX IMVI) | IC50 (HT-29 cells) | IC50 (PC3 cells) | IC50 (A549 cells) | GI50 (NCI-H23) | GI50 (UACC-62) | GI50 (A549/ATCC) | IC50 (primary cortical neurons; [1]) | IC50 (primary cortical neurons; [2]) | GI50 (K-562) | GI50 (CAKI-1) | GI50 (SK-MEL-28) | apoptosis induction (Jurkat cells) | GI50 (TK-10) | GI50 (CCRF-CEM)
1 | Cc1ccnc(Nc2ccc([N+](=O)[O-])c(NCCN3CCOCC3)n2)c1 [Compound 4AZA2996, N^6-(4-methylpyridin-2-yl)-N^2-(2-morpholinoethyl)-3-nitropyridine-2,6-diamine] | < 10 nM | 4 nM | 9.5 nM | 12 nM | 15.5 nM | < 10 nM | < 10 nM | 7.4 nM | 9.5 nM | < 10 nM | < 10 nM | 12.6 µM | induce apoptosis | 18.6 µM | 26.3 nM
2 | Cc1cc(C)cc(Nc2ccc([N+](=O)[O-])c(NCCN3CCOCC3)n2)c1 [Compound 4AZA2891, 6-(3,5-dimethylanilino)-2-(2-morpholinoethylamino)-3-nitropyridine] | 11.5 nM | 5.4 nM | 11.9 nM | 20.3 nM | 27.5 nM | < 10 nM | 20 nM | 8 nM | 10 nM | 11.5 nM | < 10 nM | 2.75 µM | induce apoptosis | 12.9 µM | 33.1 nM
